# In ChEMBL document CHEMBL1201862, “PubChem BioAssay data set” (2004):
# Active and inactive are the calls of the source.
# Key:
# [1] = target: Peroxisome proliferator-activated receptor alpha (Homo sapiens, UniProt Q07869); assay: Late stage assay provider counterscreen for partial agonists of the peroxisome proliferator-activated receptor gamma (PPARg): Luminescence-based cell-based dose response assay for partial agonists of the peroxisome proliferator-activated receptor alpha (PPARA). [Related pubchem assays (depositor defined):AID1051, AID1300, AID1319, AID1679, AID1808, AID504446, AID504447, AID504452, AID504453, AID631]; assay type: functional
# [2] = target: T1, Peroxisome proliferator-activated receptor gamma (Homo sapiens, UniProt P37231); assay: PPARg transcriptional activation, reporter cells – cell-based, luminescence, assay provider, dose response (AID 504447); assay type: functional
# [3] = target: T1, Peroxisome proliferator-activated receptor gamma; assay: competitive ligand displacement at PPARg – biochemical, TR-FRET, LanthaScreen, PPARg partial agonist project, dose response (AID 504446)
# [4] = target: T2, Runt-related transcription factor 1/Core-binding factor subunit beta (Homo sapiens, UniProt Q01196+Q13951); assay: disruptors of Runt domain/CBFb-SMMHC interaction – biochemical, FRET, Cerulean-Runt, Venus-CBFb-SMMHC, uHTS, […] (AID 1434); assay type: protein assay
# [5] = target: T2, Runt-related transcription factor 1/Core-binding factor subunit beta; assay: Runt domain/CBFb-SMMHC interaction disruptors – biochemical, TR-FRET (AID 1438); assay type: protein assay
# ORF 73 = ORF 73 (Human herpesvirus 8, UniProt O40947); assay: KSHV LANA DNA-binding disruption – biochemical, fluorescence polarization, cherry-picked samples, dose response (AID 504725); design: species or system Human gammaherpesvirus 8;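 also: fluorescence polarization of a labeled DNA duplex reporting LANA DNA binding; potency is for inhibitors that block LANA binding to the DNA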
# Beta-lactamase [6] = target: Beta-lactamase (Pseudomonas aeruginosa, UniProt Q79MP6);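 also: biochemical dose-response test of metallo-beta-lactamase enzyme inhibition, read out by epi-absorbance; purified recombinant IMP-1 metallo-beta-lactamase with nitrocefin as substrate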
# HeLa = assay: viability loss in HeLa cells – cell-based, 24 h, cherry-picked samples, cytotoxicity control, dose response (AID 504726); assay type: functional; conditions: Homo sapiens;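 also: potency for cytotoxicity as loss of luminescence signal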
# Beta-lactamase [7] = target: Beta-lactamase (Salmonella choleraesuis (strain SC-B67), UniProt Q5J463)
# Troponin, cardiac muscle = Troponin, cardiac muscle (Homo sapiens, UniProt P19429+P45379+P63316); assay: Fluorescence-based biochemical high throughput dose response assay for activators of the calcium sensitivity of cardiac Regulated Thin Filaments (RTF). [Related pubchem assays (depositor defined):AID493008, AID493018, AID504382, AID504383]; assay type: protein-complex assay
# [8] = target: T2, Runt-related transcription factor 1/Core-binding factor subunit beta; assay: Confirmation of compounds inhibiting the binding between the RUNX1 Runt domain and CBFb-SMMHC via a fluorescence resonance energy transfer (FRET) assay. [Related pubchem assays (depositor defined):AID1434, AID1438, AID1496, AID1550, AID1645]; assay type: protein assay
# [9] = target: T3, Voltage-gated N-type calcium channel alpha-1B subunit/Amyloid beta A4 precursor protein-binding family A member 1 (Homo sapiens, UniProt Q00975+Q02410); assay type: protein assay
# [10] = target: T3, Voltage-gated N-type calcium channel alpha-1B subunit/Amyloid beta A4 precursor protein-binding family A member 1; assay type: protein assay; remark: listed apart in the source
# [11] = target: Induced myeloid leukemia cell differentiation protein Mcl-1 (Homo sapiens, UniProt Q07820); assay type: functional
# Hexokinase-1 = target: T4, Hexokinase-1 (Homo sapiens, UniProt P19367); assay: HK1 enzyme activation by HKDC1 hits – biochemical, selectivity assay for HKDC1 activator project, dose response (AID 504762); assay type: functional
# T4 sequence (P19367 whole entry): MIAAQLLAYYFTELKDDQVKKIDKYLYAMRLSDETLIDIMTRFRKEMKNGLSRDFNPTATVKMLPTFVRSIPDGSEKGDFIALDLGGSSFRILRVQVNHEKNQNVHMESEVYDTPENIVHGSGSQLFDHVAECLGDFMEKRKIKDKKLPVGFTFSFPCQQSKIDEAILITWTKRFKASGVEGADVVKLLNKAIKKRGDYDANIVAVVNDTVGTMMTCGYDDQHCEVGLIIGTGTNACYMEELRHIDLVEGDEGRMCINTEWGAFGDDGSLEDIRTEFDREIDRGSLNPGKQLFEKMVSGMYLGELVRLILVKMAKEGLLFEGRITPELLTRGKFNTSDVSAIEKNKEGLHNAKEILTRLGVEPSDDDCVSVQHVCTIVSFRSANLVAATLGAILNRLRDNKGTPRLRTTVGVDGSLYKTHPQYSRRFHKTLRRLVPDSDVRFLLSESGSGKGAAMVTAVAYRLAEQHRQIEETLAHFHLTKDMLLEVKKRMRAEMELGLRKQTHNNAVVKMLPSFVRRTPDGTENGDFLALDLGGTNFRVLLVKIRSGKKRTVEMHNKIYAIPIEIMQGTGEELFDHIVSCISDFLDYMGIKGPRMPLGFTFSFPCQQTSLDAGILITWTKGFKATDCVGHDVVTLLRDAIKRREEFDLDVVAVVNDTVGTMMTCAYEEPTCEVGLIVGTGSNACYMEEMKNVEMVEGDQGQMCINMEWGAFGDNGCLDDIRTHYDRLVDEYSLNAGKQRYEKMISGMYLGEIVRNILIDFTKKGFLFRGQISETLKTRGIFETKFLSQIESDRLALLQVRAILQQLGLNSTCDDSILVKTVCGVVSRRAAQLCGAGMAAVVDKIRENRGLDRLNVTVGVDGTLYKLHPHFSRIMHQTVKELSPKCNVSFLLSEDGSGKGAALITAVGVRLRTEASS
# Hexokinase HKDC1 = target: T5, Hexokinase HKDC1 (Homo sapiens, UniProt Q2TB90); assay: activation of HKDC1 glucose phosphorylation – biochemical, W721R variant, dose response (AID 504730); assay type: functional
# T5 sequence (Q2TB90 whole entry): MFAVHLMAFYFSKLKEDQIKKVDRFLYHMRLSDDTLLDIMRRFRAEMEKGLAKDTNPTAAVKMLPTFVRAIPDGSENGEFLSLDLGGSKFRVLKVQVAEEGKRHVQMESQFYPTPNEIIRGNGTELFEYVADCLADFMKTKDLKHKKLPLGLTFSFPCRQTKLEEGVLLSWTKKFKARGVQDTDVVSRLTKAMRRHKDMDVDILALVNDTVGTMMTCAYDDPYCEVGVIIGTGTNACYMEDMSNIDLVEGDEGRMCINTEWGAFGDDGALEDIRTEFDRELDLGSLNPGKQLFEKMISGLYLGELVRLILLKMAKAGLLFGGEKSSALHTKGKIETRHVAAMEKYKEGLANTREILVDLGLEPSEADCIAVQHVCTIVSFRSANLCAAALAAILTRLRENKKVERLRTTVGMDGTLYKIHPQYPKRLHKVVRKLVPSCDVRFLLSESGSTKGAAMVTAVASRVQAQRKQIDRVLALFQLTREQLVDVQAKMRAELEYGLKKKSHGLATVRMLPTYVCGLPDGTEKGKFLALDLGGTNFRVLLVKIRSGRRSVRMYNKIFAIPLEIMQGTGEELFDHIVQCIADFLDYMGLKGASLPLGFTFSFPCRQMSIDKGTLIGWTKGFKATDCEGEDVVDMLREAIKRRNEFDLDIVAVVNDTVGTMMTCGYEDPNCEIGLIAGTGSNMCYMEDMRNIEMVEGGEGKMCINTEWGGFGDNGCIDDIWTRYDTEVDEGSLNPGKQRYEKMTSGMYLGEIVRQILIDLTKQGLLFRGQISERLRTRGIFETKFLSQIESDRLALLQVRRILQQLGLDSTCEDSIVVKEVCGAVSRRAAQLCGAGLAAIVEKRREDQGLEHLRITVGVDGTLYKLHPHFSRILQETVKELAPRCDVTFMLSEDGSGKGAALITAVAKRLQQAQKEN
# Vero = assay: mammalian cell viability reduction – secondary assay, cytotoxicity control for West Nile virus antiviral project, dose response (AID 1650); assay type: functional; conditions: Chlorocebus sabaeus
# [12] = target: T6, Sphingosine 1-phosphate receptor 4 (Homo sapiens, UniProt O95977); assay: Fluorescence dose response cell-based high throughput screening assay for antagonists of the Sphingosine 1-Phosphate Receptor 4 (S1P4). [Related pubchem assays: 1524 (Confirmation in triplicates.), 1510 (Primary screen.)]; assay type: functional
# T6 sequence (O95977 whole entry): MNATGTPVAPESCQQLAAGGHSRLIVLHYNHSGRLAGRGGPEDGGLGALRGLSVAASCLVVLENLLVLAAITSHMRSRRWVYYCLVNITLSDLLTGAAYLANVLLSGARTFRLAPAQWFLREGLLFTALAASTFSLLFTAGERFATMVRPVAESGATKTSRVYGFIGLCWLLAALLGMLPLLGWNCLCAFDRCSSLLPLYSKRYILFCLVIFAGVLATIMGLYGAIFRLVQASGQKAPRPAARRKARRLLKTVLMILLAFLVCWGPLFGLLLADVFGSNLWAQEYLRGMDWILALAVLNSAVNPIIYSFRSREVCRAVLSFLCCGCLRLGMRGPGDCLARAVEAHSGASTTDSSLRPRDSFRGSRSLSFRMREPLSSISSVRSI
# [13] = target: Sphingosine 1-phosphate receptor 1 (Homo sapiens, UniProt P21453); assay type: functional;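 also: Tango beta-arrestin reporter U2OS cells stimulated with S1P near its EC80; inhibitor potency meaning antagonism of receptor activation by the natural agonist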
# Protein RecA = target: T7, Protein RecA (Mycobacterium tuberculosis, UniProt P9WHJ3); assay: Fluorescence Cell-Free Homogeneous Dose Retest to Identify Inhibitors of RecA-Intein Splicing Activity. [Related pubchem assays (depositor defined):AID2097, AID2223, AID489010, AID492950]; assay type: functional
# T7 sequence (P9WHJ3 whole entry): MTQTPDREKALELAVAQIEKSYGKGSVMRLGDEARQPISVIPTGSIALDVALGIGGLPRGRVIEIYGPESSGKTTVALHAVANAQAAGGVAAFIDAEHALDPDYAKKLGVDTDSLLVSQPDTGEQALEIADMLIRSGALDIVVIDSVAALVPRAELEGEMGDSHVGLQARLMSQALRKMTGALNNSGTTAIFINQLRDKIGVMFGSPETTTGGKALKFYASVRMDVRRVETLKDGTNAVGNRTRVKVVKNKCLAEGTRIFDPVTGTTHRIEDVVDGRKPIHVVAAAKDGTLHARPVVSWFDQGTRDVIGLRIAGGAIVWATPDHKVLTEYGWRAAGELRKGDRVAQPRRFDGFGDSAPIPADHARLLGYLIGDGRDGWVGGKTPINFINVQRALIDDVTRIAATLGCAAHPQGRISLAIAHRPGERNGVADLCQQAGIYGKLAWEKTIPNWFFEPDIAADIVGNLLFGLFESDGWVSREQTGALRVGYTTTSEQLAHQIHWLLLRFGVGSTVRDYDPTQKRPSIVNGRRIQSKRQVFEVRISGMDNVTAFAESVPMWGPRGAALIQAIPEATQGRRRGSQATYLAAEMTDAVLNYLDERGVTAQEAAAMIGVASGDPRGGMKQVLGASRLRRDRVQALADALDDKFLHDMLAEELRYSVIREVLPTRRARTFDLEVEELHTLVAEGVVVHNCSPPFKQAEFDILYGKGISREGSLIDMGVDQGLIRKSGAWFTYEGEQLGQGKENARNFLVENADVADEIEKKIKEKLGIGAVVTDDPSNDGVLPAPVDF
# INS1 = assay: INS-1E survival protection against cytokine death – cell-based, luminescence, retest, dose response (AID 449756); assay type: functional; conditions: Rattus norvegicus;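 also: cell death triggered by IL-1 beta plus TNF-alpha plus IFN-gamma mixture; protective hits raise ATP signal compared with cytokine alone wells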
# [14] = Intein inhibitors as potential Tuberculosis drugs, a cytotoxicity screen. [Related pubchem assays (depositor defined):AID2221, AID2223, AID434968, AID435010, AID449749, AID449750, AID489010]; assay type: functional
# [15] = target: T8, Replicative DNA helicase DnaB (Mycobacterium tuberculosis, UniProt P9WMR3); assay: DnaB intein splicing inhibitors, dose response, biochemical, cell-free fluorescence (AID 449749); assay type: functional
# T8 sequence (P9WMR3 whole entry): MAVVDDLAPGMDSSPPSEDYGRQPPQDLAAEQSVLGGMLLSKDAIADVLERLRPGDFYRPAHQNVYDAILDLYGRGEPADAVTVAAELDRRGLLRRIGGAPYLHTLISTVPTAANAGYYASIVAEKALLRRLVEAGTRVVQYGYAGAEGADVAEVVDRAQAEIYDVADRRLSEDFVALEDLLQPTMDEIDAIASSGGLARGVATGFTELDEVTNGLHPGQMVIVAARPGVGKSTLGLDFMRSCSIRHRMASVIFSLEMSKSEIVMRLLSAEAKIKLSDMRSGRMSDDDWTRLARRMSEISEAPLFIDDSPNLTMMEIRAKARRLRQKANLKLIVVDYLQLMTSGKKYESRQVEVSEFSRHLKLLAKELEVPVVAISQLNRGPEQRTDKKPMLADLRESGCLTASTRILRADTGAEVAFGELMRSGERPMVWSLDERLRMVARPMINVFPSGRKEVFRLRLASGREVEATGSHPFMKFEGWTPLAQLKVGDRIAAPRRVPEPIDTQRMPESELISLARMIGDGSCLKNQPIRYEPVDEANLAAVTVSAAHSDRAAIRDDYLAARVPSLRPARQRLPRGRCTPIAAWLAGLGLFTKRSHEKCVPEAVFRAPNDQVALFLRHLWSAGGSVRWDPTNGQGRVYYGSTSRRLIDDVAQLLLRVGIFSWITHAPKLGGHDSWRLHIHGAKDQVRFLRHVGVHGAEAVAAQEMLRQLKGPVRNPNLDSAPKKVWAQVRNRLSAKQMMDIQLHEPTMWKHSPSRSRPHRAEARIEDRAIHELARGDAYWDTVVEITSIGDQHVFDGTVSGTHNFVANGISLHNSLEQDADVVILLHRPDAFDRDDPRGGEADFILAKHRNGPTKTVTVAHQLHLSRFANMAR
smiles,measurement,setting,value
O=C(O)CCN1C(=O)/C(=C\c2cccc(OCc3ccccc3)c2)SC1=S,EC50,[1],> 3 µM (inactive)
same,EC50,[2],1.5 µM (active)
same,IC50,[3],0.276 µM (active)
COc1cccc(-c2nc(-c3ccc4c(c3)-c3ccccc3S4(=O)=O)c(-c3ccccc3)[nH]2)c1OC,IC50,[4],33.6 µM (active)
same,IC50,[5],> 100 µM (inactive)
O=[N+]([O-])c1ccc(N2CCCCCC2)c2nonc12,AC50,ORF 73,54.6 µM (active)
same,IC50,Beta-lactamase [6],> 59.6 µM (inactive)
same,AC50,HeLa,69.4 µM (active)
same,IC50,Beta-lactamase [7],22.4 µM (inactive)
same,EC50,"Troponin, cardiac muscle",0.413 µM (active)
CCc1ccc(S(=O)(=O)Nc2ccc(-c3nc4cccnc4s3)cc2)s1,IC50,[8],> 100 µM (inactive)
CC(=O)Nc1ccc(C2=NN=C(Nc3ccc(S(=O)(=O)N4CCOCC4)cc3)SC2)cc1,IC50,[9],> 50 µM (inactive)
same,IC50,[10],13.8 µM (active)
same,IC50,[11],1.61 µM (active)
same,EC50,Hexokinase-1,7.65 µM (active)
same,EC50,Hexokinase HKDC1,7.92 µM (active)
Cc1c(/C=N/Nc2nc3ccccc3[nH]2)c2ccccc2n1C,CC50,Vero,39.2 µM (active)
same,IC50,[12],1.76 µM (active)
same,IC50,[13],6.78 µM (active)
same,EC50,Protein RecA,1.99 µM (active)
same,AC50,INS1,4.83 µM (active)
same,CC50,[14],18.1 µM (active)
same,AC50,[15],3.82 µM (active)
